Measurements taken from PubChem BioAssay (NCI).
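These data come from cells grown in 96-well plates and exposed to compound for 48 hours at five concentrations. Here, GI50 denotes the concentration required for 50% inhibition of growth. The concentration for full growth arrest is given as TGI.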

Tests used:
Experiment in all cases: NCI anticancer screen, dose series, 48 h
SK-MEL-5 melanoma = system: SK-MEL-5 melanoma
MALME-3M melanoma = system: MALME-3M melanoma
DU-145 prostate = system: DU-145 prostate
M14 melanoma = system: M14 melanoma
HOP-62 NSCLC = system: HOP-62 NSCLC
UACC-257 melanoma = system: UACC-257 melanoma
SF-268 CNS = system: SF-268 CNS
MOLT-4 leukemia = system: MOLT-4 leukemia
TK-10 renal = system: TK-10 renal
SF-539 CNS = system: SF-539 CNS
IGROV1 ovarian = system: IGROV1 ovarian
A498 renal = system: A498 renal
SK-MEL-2 melanoma = system: SK-MEL-2 melanoma

Compound	TGI (SK-MEL-5 melanoma) [µM]	TGI (MALME-3M melanoma) [µM]	TGI (DU-145 prostate) [µM]	TGI (M14 melanoma) [µM]	TGI (HOP-62 NSCLC) [µM]	TGI (UACC-257 melanoma) [µM]	TGI (SF-268 CNS) [µM]	TGI (MOLT-4 leukemia) [µM]	TGI (TK-10 renal) [µM]	TGI (SF-539 CNS) [µM]	TGI (IGROV1 ovarian) [µM]	TGI (A498 renal) [µM]	TGI (SK-MEL-2 melanoma) [µM]	GI50 (SK-MEL-5 melanoma) [µM]	GI50 (MALME-3M melanoma) [µM]	GI50 (DU-145 prostate) [µM]	GI50 (M14 melanoma) [µM]	GI50 (SK-MEL-2 melanoma) [µM]	GI50 (HOP-62 NSCLC) [µM]	GI50 (SF-539 CNS) [µM]
CCN(CC)C(=O)c1cc([N+](=O)[O-])c(=O)n2c1[nH]c1ccccc12	> 100	> 100	> 100	> 100	> 100	> 100	> 100	> 100	> 100	> 100	> 100	–	–	–	–	–	–	–	–	–
OC(CCl)CN1CC[N+]2(CC1)CC[N+]1(CCN(CC(O)CCl)CC1)CC2 (stereo not given)	> 50	> 50	–	> 50	–	–	> 50	> 50	> 50	> 50	> 50	> 50	> 50	–	–	–	–	–	–	–
O=C(NNc1nc(-c2ccccc2)cs1)Nc1ccccc1	38.2	> 100	89.1	> 100	56.8	59.3	80.9	> 100	48.6	–	> 100	–	44.6	–	–	–	–	–	–	–
Cc1ccc(S(=O)(=O)N/N=C\c2c3ccccc3[n+](C)c3ccccc23)cc1	98.5	95.3	–	97.9	> 100	> 100	> 100	53.3	> 100	54	> 100	> 100	> 100	–	–	–	–	–	–	–
CCN(CCC#N)C(=O)Nc1ccccc1	> 100	> 100	> 100	> 100	> 100	> 100	–	> 100	> 100	> 100	> 100	–	> 100	–	–	–	–	–	–	–
Nc1ncc2c(n1)-c1ccccc1OC2	> 100	> 100	–	–	> 100	> 100	> 100	> 100	–	> 100	> 100	> 100	> 100	–	–	–	–	–	–	–
CC1C(c2ccccc2)NC(c2ccccc2)CC1(N)C#N (stereo not given)	> 100	–	> 100	> 100	> 100	> 100	> 100	> 100	> 100	> 100	> 100	–	–	–	–	–	–	–	–	–
COc1ccc(C2=NN(c3nsc4ccccc34)C(=O)CC2)cc1	> 100	–	–	> 100	> 100	> 100	> 100	> 100	> 100	> 100	> 100	–	> 100	–	–	–	–	–	–	–
CSc1nc(-c2ccccc2)nc(=[N+]2CCOCC2)s1	> 100	> 100	–	> 100	> 100	–	> 100	> 100	> 100	> 100	> 100	> 100	> 100	–	–	–	–	–	–	–
N=C(N)c1ccc(-c2ccc(-c3ccc(Cl)cc3Cl)s2)nc1	3.24	3.23	3.27	3.63	3.92	–	–	–	–	3.06	–	–	7.32	1.77	1.71	1.85	1.85	2.79	1.89	1.66
CC1=C(C(=O)NCc2ccccc2)C(c2ccco2)C(C(=O)NCc2ccccc2)=C(C)N1	> 100	> 100	–	> 100	> 100	> 100	> 100	> 100	> 100	> 100	> 100	> 100	92.6	–	–	–	–	–	–	–
O=[N+]([O-])c1ccc(Nc2cccc3c2[nH]c2c(-c4ccccc4)nccc23)c([N+](=O)[O-])c1	> 100	> 100	–	–	> 100	> 100	> 100	> 100	–	> 100	> 100	> 100	> 100	–	–	–	–	–	–	–
Cc1cc(S(=O)(=O)Nc2n[nH]c(Nc3ccccc3)n2)c(SSc2cc(Cl)c(C)cc2S(=O)(=O)Nc2n[nH]c(Nc3ccccc3)n2)cc1Cl	> 100	> 100	> 100	> 100	> 100	> 100	> 100	> 100	> 100	> 10	> 100	–	–	–	–	–	–	–	–	–
Cc1ccc2c(=O)cc(-c3cccc(F)c3)[nH]c2n1	2.16	> 100	1.23	> 100	> 100	> 100	> 100	> 100	> 100	0.78	> 100	–	–	–	–	–	–	–	–	–
O=S(=O)(O)c1cc(N=[N+]([O-])c2ccc(N=Nc3ccccc3)cc2S(=O)(=O)O)ccc1/C=C/c1ccc(N=[N+]([O-])c2ccc(N=Nc3ccccc3)cc2S(=O)(=O)O)cc1S(=O)(=O)O	> 100	> 100	–	–	> 100	> 100	> 100	> 100	–	> 31.6	> 100	> 100	> 100	–	–	–	–	–	–	–
O=c1onc(Nc2ccccc2)n1-c1ccccc1	> 100	> 100	–	> 100	> 100	> 100	–	> 100	> 100	> 100	> 100	> 100	> 100	–	–	–	–	–	–	–
